How the values were obtained:
[1] = Spraying coated dispersion with water solutions (cospraying); assay type: physicochemical; details: water solution of the compound sprayed on knife coated dispersion of Example 9B
Source text: For an ionic dispersion, a solution containing polyion of the opposite charge can be applied to the film to create an instantaneous tack-free film. For example, an anionic dispersion can be coated and before it has formed a film, a solution containing polyvalent cation is sprayed on the coating's surface to yield a tack free film. This method is commonly referred to as “cospraying.” A preferred solution contains water and metal cations, such as calcium and magnesium. Preferably, the film becomes tack free almost instantaneously after spraying the water solution (i.e., within a minute, preferably within a few seconds). In applications where very rapid tack-free times are required, such as in preoperative preparation for surgery, it may be beneficial to mist or otherwise wet the surface of the film. By “tack-free,” it is generally meant that the misted film contains little or no adhesion to other substrates at ambient conditions, typically from about 20° to 30° C.
The dispersions of Example 9B we knife coated onto a polypropylene coated paper release liner and sprayed with water solutions containing the following materials. The film appearance was recorded in the Result column.

[2] = Stability of dispersions on storage / standing; assay type: physicochemical; details: Example 6 dispersions
Method: The particle size of certain dispersions was measured on a Coulter LS 100 laser Particle Size Analyzer equipped with a microvolume module. Usually, the particle size was measured one day after dispersions were made. The particle size was measured again about 30 days after the dispersions were made. During this period, the dispersions were sealed and stored at room temperature. Samples were diluted in the same solvent mixture as the original dispersion to make the measurement. The results are shown in Table 2 below, which indicate that the dispersions have mean particle sizes generally under about 5 to 6 micrometers (μm). All dispersions appear to be stable after about 30 days.
After adding the prepolymer, each example was adjusted to a pH of about 7.0. To Example 2B was added a 40% solids, water based polyurethane pressure sensitive adhesive (PSA) (WD4006 from H.B. Fuller, St. Paul, Minn.). The PSA was added to increase adhesion to skin. The PSA was added to the alcohol-water solvent system prior to prepolymer addition. The EDA was added and the reaction mixture stirred at high speed for 20 minutes. Stable dispersions were obtained in call cases.
The dispersions with and without iodine anti-microbial agents were applied to human skin in small patches and allowed to dry. Adhesion was very good for all samples.

Row | Compound | Result (film appearance) [1] | stability of anti-microbial agent in the dispersions upon standing [2]
1 | O=C([O-])CC(O)(CC(=O)[O-])C(=O)[O-].O=C([O-])CC(O)(CC(=O)[O-])C(=O)[O-].[Ca+2].[Ca+2].[Ca+2] [Calcium Citrate] | No effect | –
2 | [Ca+2].[Cl-].[Cl-] [Calcium chloride] | Almost instantaneous tack-free film. | –
3 | [Cl-].[Na+] [Sodium Chloride] | Random coagulation. | –
4 | povidone-iodine | – | split out of the dispersions as a separate phase upon standing

From patent US6605666B1, “Polyurethane film-forming dispersions in alcohol-water system” (3M Innovative Properties Company, priority 2000, dated 2003)
